Results reported in patent publication US20250034186A1, “ANTIVIRAL COMPOUNDS” (priority 2020, published 2025).

Legend:
[1] = system: DENV2 replicon; assay: DENV-2 Huh-7 Rep EC50; format: cell-based, dengue virus; details: for EC50: Dengue virus, Huh-7 cells containing DENV2 replicon, 48 hours, read-out: DENV Huh7 REP EC50
Protocol: In 384 well plates (Greiner, Cat #781091), compounds were acoustically transferred at 200 nl per well in a 8 compound (4 replicates) or 40 compound dose response format (3 replicates). For all plates tested, Balapiravir, GS-5734 and NITD008 were included as positive inhibition controls alongside 0% inhibition, DMSO-only negative control wells. Following compound addition, Huh-7 cells containing the DENV2 replicon construct were harvested following standard cell culture procedures and were adjusted to a concentration of 1.25E5 cells/mL in cell culture media composed of cDMEM without genticin. 40 μL of the cell stock was then added to each well for a final cell density of 5,000 cells/well. Cell and compound mixtures were incubated at 37° C./5% CO2 for 48 hours. Prior to harvesting cells, EnduRen Live Cell Substrate (Promega, Cat #E6481) was prepared by suspending 3.4 mg into 100 uL of DMSO to generate a 60 mM stock solution. The stock solution was then diluted 1:200 in pre-warmed cDMEM and 10 uL of this diluted solution was added to each well of the 384 well plates. Plates were then centrifuged at 500 rpm briefly and were placed on a plate shaker for 2 min. Following mixing, plates were incubated at […] for 1.5 hours prior to measuring luminescence on an Envision luminometer.

[2] = in vitro; format: cell-based; details: human, read-out: CC50 GALHEPG2
Protocol: The compound of Formula I and compounds 1, 2 and 6 were tested in a high-throughput 384-well assay format for cytotoxicity in galactose-adapted HepG2 cells (human liver carcinoma cell line).
(§1) Cells were diluted in media (DMEM (11966), 10% FBS, 1% NEAA, 0.2% Galactose, 1% Pyruvate, 1% Glutamax, 1% PSG) to 16.6K cells/mL and plated at 90 uL/well into 384 well poly-D-lysine coated assay plates and placed in an incubator at 37° C. and 5% CO2. Compounds were serially diluted (1:3) in 100% DMSO in 384-well plates in quadruplicate. DMSO and 2 mM Puromycin were included as negative and positive controls respectively. 24 hours after cell plating, a 384 channel pipettor was used to transfer 0.4 uL from the compound plate to the assay plate. Assay plates were returned to the incubator. After 5 days, assay plates were washed with 80 uL/well of PBS before addition of 20 μL of Cell Titer Glo. Assay plates were read on the Envision plate reader. […] CC50 values were calculated in Accord (on-line tool) using a one-site dose-response model to generate sigmoidal curve fits.

[3] = MRC5 cytotoxicity assay; format: cell-based; details: human, MRC5 cells
Protocol: as §1, with “Compounds were tested in a high-throughput 384-well assay format for cytotoxicity in MRC5 cells (human fetal lung fibroblast cell line). Cells” for “Cells”, “(MEM (10-010-CM),” for “(DMEM (11966),”, “FBS,” for “FBS, 1% NEAA, 0.2% Galactose, 1% Pyruvate, 1% Glutamax,”

[4] = PRPT cytotoxicity assay; format: cell-based; details: human, primary renal proximal tubule epithelial cells (PRPTEC); 5-day incubation
Protocol: The PRPT cytotoxicity assays on the compound of Formula I and compounds 1, 2 and 6 were conducted using the following protocol.
Cryopreserved human primary renal proximal tubule epithelial cells (PRPTEC), were obtained from LifeLine Cell Technology (Frederick, MD, Cat #FC-0013) and isolated from the tissue of human kidney. The cells were cultured with RenaLife completed medium (LifeLine, Frederick, MD, Cat #LL-0025) in T75 flask for 3 to 4 days from cryopreserved vial, before the cells were seeded to assay plates after 90% confluence. PRPTEC cells were plated at a density of 5×10^3 cells per well in collagen coated 96-well plate with a final volume of […] per well. On next day, the compound was added to cell plates directly using HP D300 Dispenser (Hewlett-Packard, Palo Alto, CA) with program starting at 200 fold lower than the compound stock concentration, and 1:3 fold dilution in duplicates with constant amount of DMSO equal to 0.5%. After 5-day incubation, culture medium was removed, cell viability was measured by addition of […] per well of CellTiter Glo viability reagent (Promega, Madison, WI, Cat #G7573) and the luminescence signal was quantified on a Luminescence plate reader (Perkin-Elmer, Waltham, MA).

Compound: CCOC(=O)[C@H](C)NP(=O)(OC[C@@]1(C#N)O[C@@H](c2ccc3c(N)ncnn23)[C@H](O)[C@@H]1O)Oc1ccccc1 (stereo partly shown) [Compound 1, reference compound]
- EC50 [1]: 73.4 µM
- CC50 at 5 days [2]: > 44.4 µM
- CC50 at 5 days [3]: > 44.4 µM

Compound: CCC(CC)COC(=O)[C@H](C)NP(=O)(OC[C@@]1(C#N)O[C@@H](c2ccc3c(N)ncnn23)[C@H](O)[C@@H]1O)Oc1ccccc1 (stereo partly shown) [Compound 2, reference compound]
- EC50 [1]: 5.54 µM
- CC50 at 5 days [2]: > 44.4 µM
- CC50 at 5 days [3]: > 44.4 µM
- CC50 at 5 days [4]: 23.8 µM

Compound: CCC(CC)COC(=O)[C@H](C)N[P@](=O)(OC[C@@]1(C#N)O[C@@H](c2ccc3c(N)ncnn23)[C@H](O)[C@@H]1O)Oc1ccccc1 [Compound 6, 2-ethylbutyl ((S)-(((2R,3S,4R,5S)-5-(4-aminopyrrolo[2,1-f][1,2,4]triazin-7-yl)-2-cyano-3,4-dihydroxytetrahydrofuran-2-yl)methoxy)(phenoxy)phosphoryl)alaninate]
- CC50 at 5 days [2]: > 88.9 µM
- CC50 at 5 days [3]: > 88.4 µM
- CC50 at 5 days [4]: 42.3 µM

Compound: C[C@H](N[P@](=O)(OC[C@@]1(C#N)O[C@@H](c2ccc3c(N)ncnn23)[C@H](O)[C@@H]1O)Oc1ccccc1)C(=O)OC1CCCCC1 [Formula I, cyclohexyl ((S)-(((2R,3S,4R,5S)-5-(4-aminopyrrolo[2,1-f][1,2,4]triazin-7-yl)-2-cyano-3,4-dihydroxytetrahydrofuran-2-yl)methoxy)(phenoxy)phosphoryl)-L-alaninate]
- EC50 [1]: 2.94 µM
- times more potent than compound 1, DENV huh7 Rep ([1]; EC50 ratio vs compound 1): about 25.0 times
- times more potent compared to compound 2, DENV huh7 Rep ([1]; EC50 ratio vs compound 2): about 1.9 times
- CC50 at 5 days [2]: > 88.9 µM
- CC50 at 5 days [3]: > 44.4 µM
- CC50 at 5 days [4]: > 84.4 µM
